Measurements published in patent publication US20230416330A1, “Optimized GIP Peptide Analogues” (Antag Therapeutics ApS, priority 2019, published 2023).
Starred links: 1 amine or outer side, 2 acyl side, 3 side chain; linkers in the order of their positions; H or OH if unused. Non-standard residues stand in square brackets, D forms with d. Residues, ends and D or L forms follow the SMILES beside them. Groups on a side chain read outwards from the residue. *: point of attachment. C18 diacid = O=C(O)CCCCCCCCCCCCCCCCC(=O)*; C16 diacid = O=C(O)CCCCCCCCCCCCCCC(=O)*; γGlu = O=C(O)[C@H](CCC(=O)[*:2])N[*:1]; Glutaryl = O=C(CCCC(=O)[*:2])[*:1]; Nle = CCCC[C@H](N)C(=O)O; AEEA = NCCOCCOCC(=O)O; Aib = CC(C)(N)C(=O)O

Biological target: T1, human GIP receptor (Homo sapiens, UniProt P48546)
T1 construct: host or cells: HEK-293 cells, transient transfection (Lipofectamine 2000), cDNA in pCMV-Script vector
T1 sequence (P48546 22-466): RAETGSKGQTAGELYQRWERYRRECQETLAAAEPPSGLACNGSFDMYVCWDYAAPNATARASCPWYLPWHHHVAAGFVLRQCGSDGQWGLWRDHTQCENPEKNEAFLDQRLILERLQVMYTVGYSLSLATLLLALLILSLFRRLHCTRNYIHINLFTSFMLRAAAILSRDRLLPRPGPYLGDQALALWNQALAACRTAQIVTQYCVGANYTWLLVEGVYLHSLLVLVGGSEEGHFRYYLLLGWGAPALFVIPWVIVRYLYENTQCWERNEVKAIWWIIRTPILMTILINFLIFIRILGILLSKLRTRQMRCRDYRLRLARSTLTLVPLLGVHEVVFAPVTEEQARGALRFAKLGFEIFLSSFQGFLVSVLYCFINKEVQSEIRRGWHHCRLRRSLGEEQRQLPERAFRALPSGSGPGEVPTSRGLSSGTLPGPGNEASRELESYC
Assay: cAMP assay Alternative 1 (CisBio assay), GIPR antagonism
Assay type: cell-based
Conditions: Table 2B; % inhibition of Emax
Procedure: HEK293 cells were cultured in 10% CO2 and 37° C. in Dulbecco's modified Eagle's medium supplemented with 10% fetal bovine serum, 2 mM glutamine, 180 units/ml penicillin, and 45 µg/ml streptomycin. Transient transfection with hGIPR for the CisBio assay from Table 2C was performed by using Lipofectamine 2000.
The in vitro functional activity of compounds towards human GIP receptor can also be determined in HEK-293 cells transiently expressing the receptor. On the day of the assay, cells were resuspended in HBSS buffer (Gibco, 14025-50) supplemented with […] (Gibco, 15630-106), 0.1% Pluronic F-68 (Gibco, 24040-032) and 0.1% casein (Sigma, C4765), and plated in 384-well plates at a density of 5000 cells/well. The GIP peptide analogues of the present disclosure were diluted in HBSS buffer supplemented with 20 mM HEPES, 0.1% pluronic, 0.1% casein and 500 uM IBMX. […] The resulting decrease in intracellular cAMP was quantitatively determined using the CisBio cAMP Dynamic 2 HTRF Assay Kit. The assay is based on a competition between native cAMP produced by cells and cAMP labeled with the dye d2 for binding to a cryptate labeled antibody. The specific signal (i.e. energy transfer signal) is inversely proportional to the concentration of cAMP in the sample.
The cAMP-d2 conjugate and the antibody anti-cAMP-Cryptate, both diluted in lysis buffer provided in the kit, were added to the cells according to the manufacturer's protocol. The resulting competitive assay was incubated for 60 minutes at room temperature, and the signal was detected by using a PerkinElmer Envision® instrument with excitation at 320 nm and emission at 665 nm and 620 nm. The HTRF ratio (emission at 665 nm/620 nm*10,000) is inversely proportional to the amount of cAMP present and is converted to nM cAMP per well using a cAMP standard curve. The dose-response curves were fitted using the non-linear regression analysis (four-logistic parameter equation) in GraphPad Prism, whereby pIC50 values were estimated. To test for agonistic properties at the GIP receptor, compounds were diluted and added to cells as described above and incubated for 30 min at 37° C. The resulting increase in intracellular cAMP was determined using the CisBio cAMP Dynamic 2 HTRF Assay Kit as described above.
The dose-response curves were fitted using the non-linear regression analysis (four-logistic parameter equation) in GraphPad Prism, whereby pIC50 values were estimated.

Compared with `CC[C@H](C)[C@H](NC(=O)[C@H](CO)NC(=O)[C@H](Cc1ccc(O)cc1)NC(=O)[C@H](CC(=O)O)NC(=O)[C@H](CO)NC(=O)[C@@H](NC(=O)[C@H](Cc1ccccc1)NC(=O)[C@@H](NC(=O)CNC(=O)[C@@H](N)CCC(=O)O)[C@@H](C)O)[C@@H](C)CC)C(=O)N[C@@H](C)C(=O)N[C@@H](CC(C)C)C(=O)N[C@@H](CC(=O)O)C(=O)N[C@@H](CCCCN)C(=O)N[C@H](C(=O)N[C@@H](CCCCNC(=O)COCCOCCNC(=O)COCCOCCNC(=O)CC[C@H](NC(=O)CCCCCCCCCCCCCCCCC(=O)O)C(=O)O)C(=O)N[C@@H](CCC(N)=O)C(=O)N[C@@H](CCC(N)=O)C(=O)N[C@@H](CC(=O)O)C(=O)N[C@@H](Cc1ccccc1)C(=O)N[C@H](C(=O)N[C@@H](CCC(=O)O)C(=O)N[C@@H](Cc1c[nH]c2ccccc12)C(=O)N[C@@H](CC(C)C)C(=O)N[C@@H](CC(C)C)C(=O)N[C@@H](C)C(=O)N[C@@H](CCC(N)=O)C(=O)N[C@@H](CCCCN)C(=O)N1CCC[C@H]1C(=O)N[C@@H](CO)C(=O)N[C@@H](CO)C(=O)NCC(=O)N[C@@H](C)C(=O)N1CCC[C@H]1C(=O)N1CCC[C@H]1C(=O)N1CCC[C@H]1C(=O)N[C@@H](CO)C(=O)O)C(C)C)[C@@H](C)CC` [AT682] (H-EGTFISDYSIALDKIK([AEEA-AEEA-γGlu-C18 diacid])QQDFVEWLLAQKPSSGAPPPS-OH; N-terminus assumed), `CCCC[C@H](NC(=O)[C@H](C)NC(=O)[C@@H](NC(=O)[C@H](CO)NC(=O)[C@H](Cc1ccc(O)cc1)NC(=O)[C@H](CC(=O)O)NC(=O)[C@H](CO)NC(=O)[C@@H](NC(=O)[C@H](Cc1ccccc1)NC(=O)[C@@H](NC(=O)CNC(=O)[C@@H](N)CCC(=O)O)[C@@H](C)O)[C@@H](C)CC)[C@@H](C)CC)C(=O)N[C@@H](CC(=O)O)C(=O)N[C@@H](CCCCN)C(=O)N[C@H](C(=O)N[C@@H](CCCCNC(=O)COCCOCCNC(=O)COCCOCCNC(=O)CC[C@H](NC(=O)CCCCCCCCCCCCCCCCC(=O)O)C(=O)O)C(=O)N[C@@H](CCC(N)=O)C(=O)N[C@@H](CCC(N)=O)C(=O)N[C@@H](CC(=O)O)C(=O)N[C@@H](Cc1ccccc1)C(=O)N[C@H](C(=O)N[C@@H](CCC(=O)O)C(=O)N[C@@H](Cc1c[nH]c2ccccc12)C(=O)N[C@@H](CC(C)C)C(=O)N[C@@H](CC(C)C)C(=O)N[C@@H](C)C(=O)N[C@@H](CCC(N)=O)C(=O)N[C@@H](CCCCN)C(=O)N1CCC[C@H]1C(=O)N[C@@H](CO)C(=O)N[C@@H](CO)C(=O)NCC(=O)N[C@@H](C)C(=O)N1CCC[C@H]1C(=O)N1CCC[C@H]1C(=O)N1CCC[C@H]1C(=O)N[C@@H](CO)C(=O)O)C(C)C)[C@@H](C)CC` [AT683] (H-EGTFISDYSIA[Nle]DKIK([AEEA-AEEA-γGlu-C18 diacid])QQDFVEWLLAQKPSSGAPPPS-OH; N-terminus assumed) is higher in “cAMP antagonism % inhib” value: 89% for the first, 93% for the second.

First: CCCC[C@H](NC(=O)C(C)(C)NC(=O)[C@@H](NC(=O)[C@H](CO)NC(=O)[C@H](Cc1ccc(O)cc1)NC(=O)[C@H](CC(=O)O)NC(=O)[C@H](CO)NC(=O)[C@@H](NC(=O)[C@H](Cc1ccccc1)NC(=O)[C@@H](NC(=O)CNC(=O)[C@@H](N)CCC(=O)O)[C@@H](C)O)[C@@H](C)CC)[C@@H](C)CC)C(=O)N[C@@H](CC(=O)O)C(=O)N[C@@H](CCCCN)C(=O)N[C@H](C(=O)N[C@@H](CCCCNC(=O)COCCOCCNC(=O)COCCOCCNC(=O)CC[C@H](NC(=O)CCCCCCCCCCCCCCCCC(=O)O)C(=O)O)C(=O)N[C@@H](CCC(N)=O)C(=O)N[C@@H](CCC(N)=O)C(=O)N[C@@H](CC(=O)O)C(=O)N[C@@H](Cc1ccccc1)C(=O)N[C@H](C(=O)N[C@@H](CCC(=O)O)C(=O)N[C@@H](Cc1c[nH]c2ccccc12)C(=O)N[C@@H](CC(C)C)C(=O)N[C@@H](CC(C)C)C(=O)N[C@@H](C)C(=O)N[C@@H](CCC(N)=O)C(=O)N[C@@H](CCCCN)C(=O)N1CCC[C@H]1C(=O)N[C@@H](CO)C(=O)N[C@@H](CO)C(=O)NCC(=O)N[C@@H](C)C(=O)N1CCC[C@H]1C(=O)N1CCC[C@H]1C(=O)N1CCC[C@H]1C(=O)N[C@@H](CO)C(=O)O)C(C)C)[C@@H](C)CC [AT686] (H-EGTFISDYSI[Aib][Nle]DKIK([AEEA-AEEA-γGlu-C18 diacid])QQDFVEWLLAQKPSSGAPPPS-OH; N-terminus assumed)
Second: CCCC[C@H](NC(=O)[C@H](C)NC(=O)[C@@H](NC(=O)[C@H](CO)NC(=O)[C@H](Cc1ccc(O)cc1)NC(=O)[C@H](CC(=O)O)NC(=O)[C@H](CO)NC(=O)[C@@H](NC(=O)[C@H](Cc1ccccc1)NC(=O)[C@@H](NC(=O)CNC(=O)CCCC(=O)O)[C@@H](C)O)[C@@H](C)CC)[C@@H](C)CC)C(=O)N[C@@H](CC(=O)O)C(=O)N[C@@H](CCCCN)C(=O)N[C@H](C(=O)N[C@@H](CCCCNC(=O)COCCOCCNC(=O)COCCOCCNC(=O)CC[C@H](NC(=O)CCCCCCCCCCCCCCCCC(=O)O)C(=O)O)C(=O)N[C@@H](CCC(N)=O)C(=O)N[C@@H](CCC(N)=O)C(=O)N[C@@H](CC(=O)O)C(=O)N[C@@H](Cc1ccccc1)C(=O)N[C@H](C(=O)N[C@@H](CCC(=O)O)C(=O)N[C@@H](Cc1c[nH]c2ccccc12)C(=O)N[C@@H](CC(C)C)C(=O)N[C@@H](CC(C)C)C(=O)N[C@@H](C)C(=O)N[C@@H](CCC(N)=O)C(=O)N[C@@H](CCCCN)C(=O)N1CCC[C@H]1C(=O)N[C@@H](CO)C(=O)N[C@@H](CO)C(=O)NCC(=O)N[C@@H](C)C(=O)N1CCC[C@H]1C(=O)N1CCC[C@H]1C(=O)N1CCC[C@H]1C(=O)N[C@@H](CO)C(=O)O)C(C)C)[C@@H](C)CC [AT702] (Glutaryl-GTFISDYSIA[Nle]DKIK([AEEA-AEEA-γGlu-C18 diacid])QQDFVEWLLAQKPSSGAPPPS-OH)
The “cAMP antagonism % inhib” value of the first is lower: 82% for the first, 85% for the second.

`CCCC[C@H](NC(=O)[C@H](C)NC(=O)[C@@H](NC(=O)[C@H](CO)NC(=O)[C@H](Cc1ccc(O)cc1)NC(=O)[C@H](CC(=O)O)NC(=O)[C@H](CO)NC(=O)[C@@H](NC(=O)[C@H](Cc1ccccc1)NC(=O)[C@@H](NC(=O)CNC(=O)CCCC(=O)O)[C@@H](C)O)[C@@H](C)CC)[C@@H](C)CC)C(=O)N[C@@H](CC(=O)O)C(=O)N[C@@H](CCCCN)C(=O)N[C@H](C(=O)N[C@@H](CCCCNC(=O)CCCCCCCCCCCCCCC(=O)O)C(=O)N[C@@H](CCC(N)=O)C(=O)N[C@@H](CCC(N)=O)C(=O)N[C@@H](CC(=O)O)C(=O)N[C@@H](Cc1ccccc1)C(=O)N[C@H](C(=O)N[C@@H](CCC(=O)O)C(=O)N[C@@H](Cc1c[nH]c2ccccc12)C(=O)N[C@@H](CC(C)C)C(=O)N[C@@H](CC(C)C)C(=O)N[C@@H](C)C(=O)N[C@@H](CCC(N)=O)C(=O)N[C@@H](CCCCN)C(=O)N1CCC[C@H]1C(=O)N[C@@H](CO)C(=O)N[C@@H](CO)C(=O)NCC(=O)N[C@@H](C)C(=O)N1CCC[C@H]1C(=O)N1CCC[C@H]1C(=O)N1CCC[C@H]1C(=O)N[C@@H](CO)C(=O)O)C(C)C)[C@@H](C)CC` [AT700] (Glutaryl-GTFISDYSIA[Nle]DKIK(C16 diacid)QQDFVEWLLAQKPSSGAPPPS-OH) was tested, and the “cAMP antagonism % inhib” value was 89%.
